Data on 18 compounds can be found in patent US9550739B2, “Molecules having certain pesticidal utilities, and intermediates, compositions, and processes related thereto” (priority 2014, dated 2017).

Common to all, as to format: in vivo
For series [1], the system named is Beet Armyworm (Spodoptera exigua, LAPHEG) ("BAW"). Nature of the series: Bioassays on Beet Armyworm (BAW), 128-well diet tray assay. The conditions noted are these: Spodoptera exigua, 168 h; second instar BAW larvae, 50 μg/cm^2 on artificial diet, five to seven days, 25° C.; read-out: BAW % Control (or Mortality) rating. Put shortly: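 Second-instar larvae, one to five per well, were placed on artificial diet surface-treated with 50 μg/cm^2 compound in 90:10 acetone-water and dried, eight wells per compound. Trays were held at 25° C, 14:10 light-dark, for five to seven days. Percent mortality per well was averaged over the eight wells.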

In series [2] the test system is Cabbage Looper (Trichoplusia ni, TRIPNI) ("CL"). Nature of the series: Bioassays on Cabbage Looper (CL), 128-well diet tray assay. The conditions noted are these: Trichoplusia ni, 168 h, read-out: CL % Control (or Mortality) rating. Put shortly:
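Second instar larvae (one to five per well) placed on artificial diet treated with 50 μg/cm^2 compound in acetone-water, eight wells per compound. Held at 25° C, 14:10 light-dark for five to seven days; percent mortality averaged across wells.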

Series [3] relates to Green Peach Aphid (Myzus persicae, MYZUPE) ("GPA"). As to the kind of experiment: Bioassays on Green Peach Aphid (GPA), cabbage seedling foliar spray. The note with it: 72 h, 200 ppm foliar spray on cabbage seedlings, three days, Abbott corrected % control, read-out: GPA % Control (or Mortality) rating. The protocol:
Certain molecules disclosed in this document were tested against GPA using procedures described in the following example. In the reporting of the results, the “GPA Rating Table” was used (See Table Section).
Cabbage seedlings grown in 3-inch pots, with 2-3 small (3-5 cm) true leaves, were used as test substrate. The seedlings were infested with 20-50 GPA (wingless adult and nymph stages) one day prior to chemical application. Four pots with individual seedlings were used for each treatment. Test compounds (2 mg) were dissolved in 2 mL of acetone/methanol (1:1) solvent, forming stock solutions of 1000 ppm test compound. The stock solutions were diluted 5× with 0.025% Tween 20 in water to obtain the solution at 200 ppm test compound. A hand-held aspirator-type sprayer was used for spraying a solution to both sides of […] leaves until runoff. Reference plants (solvent check) were sprayed with the diluent only containing 20% by volume of acetone/methanol (1:1) solvent. Treated plants were held in a holding room for three days at approximately 25° C. and ambient relative humidity (RH) prior to grading. Evaluation was conducted by counting the number of live aphids per plant under a microscope. Percent Control was measured by using Abbott's correction formula (W. S. Abbott, “A Method of Computing the Effectiveness of an Insecticide” J. Econ. Entomol. 18 (1925), pp. 265-267) as follows. Corrected % Control=100*(X−Y)/X • where • X=No. of live aphids on solvent check plants and • Y=No. of live aphids on treated plants

Series [4] has as its system Yellow Fever Mosquito (Aedes aegypti, AEDSAE) ("YFM"). The conditions noted are these: about 1 day-old larvae, 4000 ppm master solution diluted, 3 days, room temperature. Put shortly:
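Compounds from 4000 ppm DMSO master plates, diluted in 90:10 water:acetone, dispensed into 96-well plates, six replicates. About 1-day-old larvae added in liver-powder water. Wells covered, held 3 days at room temperature, then scored for mortality.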

Regarding `CCc1ccccc1-c1cccc(C(=O)Nc2ccc(-c3ncn(-c4ccc(OC(F)(F)F)cc4)n3)cc2)c1` [F8, 2′-Ethyl-N-(4-(1-(4-(trifluoromethoxy)phenyl)-1H-1,2,4-triazol-3-yl)phenyl)-[1,1′-biphenyl]-3-carboxamide], the mortality at 50 µg/cm2 in series [1] and in series [2] was 50 to 100% in each case. The mortality (in general, the share of the test organisms that died) at 200 ppm in series [3] is 0 to 80%. For the same compound, in series [4], the “YFM % Control (or Mortality) rating” value is “B (More than 0-Less than 80)”.

For the compound `Cc1cccc(C)c1-c1cccc(C(=S)Nc2ccc(-c3ncn(-c4ccc(OC(F)(F)F)cc4)n3)cc2)c1` [F46, 2′,6′-dimethyl-N-(4-(1-(4-(trifluoromethoxy)phenyl)-1H-1,2,4-triazol-3-yl)phenyl)-[1,1′-biphenyl]-3-carbothioamide], the mortality at 50 µg/cm2 in series [1] is 0 to 50%; in series [2], 0%. In addition, the “YFM % Control (or Mortality) rating” value in series [4] was “D (No activity noticed in this bioassay)”.

Turning to `O=C(Nc1ccc(-c2ncn(-c3ccc(OC(F)(F)C(F)(F)F)cc3)n2)cc1)c1cccc(-c2ccccc2)n1` [F47, N-(4-(1-(4-(Perfluoroethoxy)phenyl)-1H-1,2,4-triazol-3-yl)phenyl)-6-phenylpicolinamide], the mortality at 50 µg/cm2 in series [1] and in series [2] was 0% in each case. Also, the “YFM % Control (or Mortality) rating” value in series [4] is reported as “D (No activity noticed in this bioassay)”.

For the compound `O=C(Nc1ccc(-c2ncn(-c3ccc(OC(F)(F)F)cc3)n2)cc1)c1cc(-c2ccccc2)ccc1F` [F48, 4-Fluoro-N-(4-(1-(4-(trifluoromethoxy)phenyl)-1H-1,2,4-triazol-3-yl)phenyl)-[1,1′-biphenyl]-3-carboxamide], the mortality at 50 µg/cm2 is 0% in series [1] and 50 to 100% in series [2]. The “YFM % Control (or Mortality) rating” value in series [4] is “D (No activity noticed in this bioassay)”.

With `COc1ccc(-c2cccc(C(=O)Nc3ccc(-c4ncn(-c5ccc(OC(F)(F)F)cc5)n4)cc3)c2)c(C)c1` [F49, 4′-Methoxy-2′-methyl-N-(4-(1-(4-(trifluoromethoxy)phenyl)-1H-1,2,4-triazol-3-yl)phenyl)-[1,1′-biphenyl]-3-carboxamide], the mortality at 50 µg/cm2 in series [1] and in series [2] was 50 to 100% throughout. In addition, the “YFM % Control (or Mortality) rating” value in series [4] is “B (More than 0-Less than 80)”.

Turning to `COc1ccccc1-c1cccc(C(=O)NCCc2ccc(-c3ncn(-c4ccc(OC(F)(F)F)cc4)n3)cc2)c1` [F50, 2′-methoxy-N-(4-(1-(4-(trifluoromethoxy)phenyl)-1H-1,2,4-triazol-3-yl)phenethyl)-[1,1′-biphenyl]-3-carboxamide], the mortality at 50 µg/cm2 in series [1] and in series [2] was 50 to 100% each time. Besides, in series [4], the “YFM % Control (or Mortality) rating” value is recorded as “D (No activity noticed in this bioassay)”.

`O=C(NCCc1ccc(-c2ncn(-c3ccc(OC(F)(F)F)cc3)n2)cc1)c1ccc(F)c(-c2ccccc2)c1` [F51, 6-Fluoro-N-(4-(1-(4-(trifluoromethoxy)phenyl)-1H-1,2,4-triazol-3-yl)phenethyl)-[1,1′-biphenyl]-3-carboxamide]: the mortality at 50 µg/cm2 in series [1] was 50 to 100%; in series [2], 0%. Besides, the “YFM % Control (or Mortality) rating” value in series [4] was “D (No activity noticed in this bioassay)”.

In the case of `CN(C)c1ccccc1-c1cccc(C(=O)NCCc2ccc(-c3ncn(-c4ccc(OC(F)(F)F)cc4)n3)cc2)c1` [F52, 2′-(Dimethylamino)-N-(4-(1-(4-(trifluoromethoxy)phenyl)-1H-1,2,4-triazol-3-yl)phenethyl)-[1,1′-biphenyl]-3-carboxamide], the mortality at 50 µg/cm2 in series [1] and in series [2] was 50 to 100% each time. Besides, the “YFM % Control (or Mortality) rating” value in series [4] is “A (80-100)”.

With `Cc1ccccc1-c1cc(C(=O)NCCc2ccc(-c3ncn(-c4ccc(OC(F)(F)F)cc4)n3)cc2)ccc1F` [F53, 6-Fluoro-2′-methyl-N-(4-(1-(4-(trifluoromethoxy)phenyl)-1H-1,2,4-triazol-3-yl)phenethyl)-[1,1′-biphenyl]-3-carboxamide], the mortality at 50 µg/cm2 in series [1] and in series [2] was 50 to 100% each time. The “YFM % Control (or Mortality) rating” value in series [4] is on record as “A (80-100)”.

As to `O=C(NCc1ccc(-c2ncn(-c3ccc(OC(F)(F)F)cc3)n2)cc1)c1cccc(-c2ccccc2)c1` [F57, N-(4-(1-(4-(trifluoromethoxy)phenyl)-1H-1,2,4-triazol-3-yl)benzyl)-[1,1′-biphenyl]-3-carboxamide], the mortality at 50 µg/cm2 in series [1] is 0%; in series [2], 50 to 100%. For the same compound, the “YFM % Control (or Mortality) rating” value in series [4] is given as “D (No activity noticed in this bioassay)”.

Consider `Cc1ccccc1-c1cc(C(=O)Nc2ccc(-c3ncn(-c4ccc(C(F)(F)F)cc4)n3)cc2)ccc1F` [F58, 6-Fluoro-2′-methyl-N-(4-(1-(4-(trifluoromethyl)phenyl)-1H-1,2,4-triazol-3-yl)phenyl)-[1,1′-biphenyl]-3-carboxamide], for which the mortality at 50 µg/cm2 in series [1] and in series [2] was 50 to 100% in each case. In series [4], the “YFM % Control (or Mortality) rating” value is “D (No activity noticed in this bioassay)”.

Take `COc1ccc(C(=O)Nc2ccc(-c3ncn(-c4ccc(C(F)(F)F)cc4)n3)cc2)cc1-c1ccccc1` [F61, 6-Methoxy-N-(4-(1-(4-(trifluoromethyl)phenyl)-1H-1,2,4-triazol-3-yl)phenyl)-[1,1′-biphenyl]-3-carboxamide]: the mortality at 50 µg/cm2 in series [1] and in series [2] was 50 to 100% each time. In series [4], the “YFM % Control (or Mortality) rating” value was “A (80-100)”.

As to `O=C(Nc1ccc(-c2ncn(-c3ccc(C(F)(F)F)cc3)n2)cc1)c1ccc(F)c(-c2ccccc2)c1` [F62, 6-Fluoro-N-(4-(1-(4-(trifluoromethyl)phenyl)-1H-1,2,4-triazol-3-yl)phenyl)-[1,1′-biphenyl]-3-carboxamide], the mortality at 50 µg/cm2 in series [1] and in series [2] was 50 to 100% throughout. For the same compound, the “YFM % Control (or Mortality) rating” value in series [4] is listed as “B (More than 0-Less than 80)”.

Consider `CCN(C(=O)c1ccc(F)c(-c2ccccc2OC)c1)c1ccc(-c2ncn(-c3ccc(OC(F)(F)F)cc3)n2)cc1` [F64, N-Ethyl-6-fluoro-2′-methoxy-N-(4-(1-(4-(trifluoromethoxy)phenyl)-1H-1,2,4-triazol-3-yl)phenyl)-[1,1′-biphenyl]-3-carboxamide], for which the mortality at 50 µg/cm2 in series [1] and in series [2] was 50 to 100% in each case. For the same compound, in series [4], the “YFM % Control (or Mortality) rating” value is on record as “D (No activity noticed in this bioassay)”.

As to `CCCN(C(=O)c1ccc(F)c(-c2ccccc2OC)c1)c1ccc(-c2ncn(-c3ccc(OC(F)(F)F)cc3)n2)cc1` [F65, 6-Fluoro-2′-methoxy-N-propyl-N-(4-(1-(4-(trifluoromethoxy)phenyl)-1H-1,2,4-triazol-3-yl)phenyl)-[1,1′-biphenyl]-3-carboxamide], the mortality at 50 µg/cm2 in series [1] and in series [2] was 50 to 100% in each case. Besides, the “YFM % Control (or Mortality) rating” value in series [4] is reported as “D (No activity noticed in this bioassay)”.

As to `COc1ccccc1-c1cc(C(=O)N(CC2CC2)c2ccc(-c3ncn(-c4ccc(OC(F)(F)F)cc4)n3)cc2)ccc1F` [F66, N-(cyclopropylmethyl)-6-fluoro-2′-methoxy-N-(4-(1-(4-(trifluoromethoxy)phenyl)-1H-1,2,4-triazol-3-yl)phenyl)-[1,1′-biphenyl]-3-carboxamide], the mortality at 50 µg/cm2 in series [1] and in series [2] was 50 to 100% each time. In addition, in series [4], the “YFM % Control (or Mortality) rating” value is listed as “D (No activity noticed in this bioassay)”.

On to `COc1ccccc1-c1cc(C(=O)N(C(C)=O)c2ccc(-c3ncn(-c4ccc(OC(F)(F)F)cc4)n3)cc2)ccc1F` [F67, N-acetyl-6-fluoro-2′-methoxy-N-(4-(1-(4-(trifluoromethoxy)phenyl)-1H-1,2,4-triazol-3-yl)phenyl)-[1,1′-biphenyl]-3-carboxamide], for which the mortality at 50 µg/cm2 in series [1] and in series [2] was 50 to 100% throughout. Moreover, in series [4], the “YFM % Control (or Mortality) rating” value was “A (80-100)”.

As for `O=C(Nc1ccc(-c2ncn(-c3ccc(C(F)(F)F)cc3)n2)cc1)c1ccccn1` [F68, N-(4-(1-(4-(trifluoromethyl)phenyl)-1H-1,2,4-triazol-3-yl)phenyl)picolinamide], the figures for the mortality at 50 µg/cm2 in series [1] and in series [2] were 0 to 50% and 0%, respectively. The “YFM % Control (or Mortality) rating” value in series [4] is recorded as “D (No activity noticed in this bioassay)”.
